Assay: Henry solubility constant Hcp at 310 K (mol/(m3 Pa))
Details: reference: Mirvish et al. (1976)

Structure (SMILES)	Henry solubility constant Hcp at 310 K
CCOC(=O)N(C)N=O [N-nitroso-N-methylurethane]	0.39
CCCCN(CC)N=O [ethylbutylnitrosamine]	0.99
O=NN1CCC1 [nitrosoazetidine]	> 190
CC(=O)N(C)N=O [methylnitrosoacetamide]	0.086
CC1CN(N=O)CC(C)N1N=O (stereo not given) [2,6-dimethyldinitrosopiperazine]	> 190
CCCCN(CCCC)N=O [N-nitrosodi-N-butylamine]	0.72
CCCN(CCC)N=O [N-nitrosodipropylamine]	1.8
CC(C)N(N=O)C(C)C [N-(1-methylethyl)-N-nitroso-2-propanamine]	1.2
O=NN1CCCCC1 [N-nitrosopiperidine]	11
CC1CN(N=O)CC(C)O1 (stereo not given) [2,6-dimethylnitrosomorpholine]	35
O=NN1CCCCCC1 [nitrosohexamethyleneimine]	43
O=NN1CCOCC1 [4-nitrosomorpholine]	390
CCCCCN(C)N=O [methylpentylnitrosamine]	2
CN(N=O)C(N)=O [methylnitrosourea]	> 190
O=NN1CCN(N=O)CC1 [dinitrosopiperazine]	> 190
CCCCN(C)N=O [methylbutylnitrosamine]	1.7
CCN(CC)N=O [N-nitrosodiethylamine]	1.4
CN(C)N=O [N-nitrosodimethylamine]	5.2
CN(Cc1ccccc1)N=O [N-methyl-N-nitrosobenzenemethanamine]	0.79
CCN(C#N)N=O [ethylnitrosocyanamide]	0.26

From Sander's compilation of Henry's law constants (doi:10.1093/jnci/56.6.1125)
